Measured values published in patent US6872833B2, “Adenosine receptor ligands” (Hoffmann-La Roche Inc., priority 2003, dated 2005).

Key:
[1] = target: T1, human adenosine A2A receptor (Homo sapiens, UniProt P29274); test: [3H]-SCH-58261 binding assay, human adenosine A2A receptor (CHO cell membranes, SPA); details: recombinant human A2A receptor in CHO membranes, [3H]-SCH-58261 1 nM; read-out: hA2 (pKi) (converted)
T1 construct: expressed in transfected cells; host or cells: CHO cells, semliki forest virus expression system; washed membranes
T1 sequence (P29274 whole entry): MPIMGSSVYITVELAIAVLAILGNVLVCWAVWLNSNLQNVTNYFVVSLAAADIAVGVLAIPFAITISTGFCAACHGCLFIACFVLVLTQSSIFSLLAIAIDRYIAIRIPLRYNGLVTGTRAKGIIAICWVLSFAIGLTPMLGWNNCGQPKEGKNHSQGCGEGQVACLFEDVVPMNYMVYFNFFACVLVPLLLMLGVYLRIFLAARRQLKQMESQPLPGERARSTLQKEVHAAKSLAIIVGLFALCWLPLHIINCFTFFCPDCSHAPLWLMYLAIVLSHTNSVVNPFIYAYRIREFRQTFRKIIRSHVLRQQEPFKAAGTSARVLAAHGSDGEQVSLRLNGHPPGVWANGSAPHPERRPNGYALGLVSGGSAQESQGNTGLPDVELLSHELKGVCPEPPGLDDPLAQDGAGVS
Method: Human Adenosine A2A Receptor
(§1) The human adenosine A2A receptor was recombinantly expressed in Chinese hamster ovary (CHO) cells using the semliki forest virus expression system. Cells were harvested, washed twice by centrifugation, homogenized and again washed by centrifugation. The final washed membrane pellet was suspended in a Tris (50 mM) buffer containing 120 mM NaCl, 5 mM KCl, 2 mM CaCl2 and 10 mM MgCl2 (pH 7.4) (buffer A). The [^3H]-SCH-58261 (Dionisotti et al., 1997, Br J Pharmacol 121, 353; 1 nM) binding assay was carried out in 96-well plates in the presence of 2.5 μg of membrane protein, 0.5 mg of Ysi-poly-1-lysine SPA beads and 0.1 U adenosine deaminase in a final volume of 200 μl of buffer A. Non-specific binding was defined using xanthine amine congener (XAC; 2 μM). Compounds were tested at 10 concentrations from 10 μM-0.3 nM. All assays were conducted in duplicate and repeated at least two times. Assay plates were incubated for 1 hour at room temperature before centrifugation and then bound ligand determined using a Packard Topcount scintillation counter. IC50 values were calculated using a non-linear curve fitting program and Ki values calculated using the Cheng-Prussoff equation.

[2] = target: T2, human adenosine A1 receptor (Homo sapiens, UniProt P30542); test: [3H]-DPCPX binding assay, human adenosine A1 receptor (CHO cell membranes, SPA); details: selectivity of hA2A versus hA1 binding
T2 construct: expressed in transfected cells; host or cells: CHO cells, semliki forest virus expression system; washed membranes
T2 sequence (P30542 1-326): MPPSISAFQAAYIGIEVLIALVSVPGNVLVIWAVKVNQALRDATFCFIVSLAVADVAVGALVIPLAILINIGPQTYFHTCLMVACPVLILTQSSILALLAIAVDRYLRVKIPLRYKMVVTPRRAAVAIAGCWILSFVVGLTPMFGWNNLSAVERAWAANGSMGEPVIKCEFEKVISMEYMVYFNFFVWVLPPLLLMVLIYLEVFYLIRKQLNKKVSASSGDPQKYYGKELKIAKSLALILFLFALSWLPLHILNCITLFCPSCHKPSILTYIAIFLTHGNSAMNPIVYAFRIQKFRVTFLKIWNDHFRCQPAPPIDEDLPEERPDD
Method: Human Adenosine A1 Receptor
as §1, with “A1” for “A2A”, “[^3H]-DPCPX (([propyl-^3H]8-cyclopentyl-1,3-dipropyxanthine); 0.6” for “[^3H]-SCH-58261 (Dionisotti et al., 1997, Br J Pharmacol 121, 353; 1”, “ligand was” for “ligand”

Compound | Ki [1] [nM] | Selectivity to hA1 [2]
COc1ccc(C2COCCO2)c2sc(NC(=O)c3ccnc(OCCN4CCOCC4)c3)nc12 (single isomer, unassigned; (+)) [Example 52, (+)-N-(7-[1,4]Dioxan-2-yl-4-methoxy-benzothiazol-2-y)-2-(2-morpholin-4-yl-ethoxy)-isonicotinamide] | 0.501 | 3141
COc1ccc(C2COCCO2)c2sc(NC(=O)c3cccc(F)c3)nc12 (single isomer, unassigned; (+)) [Example 39, (+)-N-(7-[1,4]Dioxan-2-yl-4-methoxy-benzothiazol-2-yl)-3-fluoro-benzamide] | 1.07 | 674
COc1ccc(C2COCCO2)c2sc(NC(=O)c3ccc(C)cc3)nc12 (single isomer, unassigned; (+)) [Example 34, (+)-N-(7-[1,4]Dioxan-2-yl-4-methoxy-benzothiazol-2-yl)-4-methyl-benzamide] | 0.417 | 4503
COc1ccc(C2COCCO2)c2sc(NC(=O)c3ccnc(C4=CCOCC4)c3)nc12 (racemic) [Example 5, (±)-2-(3,6-Dihydro-2H-pyran-4-yl)-N-(7-[1,4]dioxan-2-yl-4-methoxy-benzothiazol-2-yl)-isonicotinamide] | 1.45 | 1421
COc1ccc(C2COCCO2)c2sc(NC(=O)c3ccc(F)cc3)nc12 (single isomer, unassigned; (+)) [Example 16, (+)-N-(7-[1,4]Dioxan-2-yl-4-methoxy-benzothiazol-2-yl)-4-fluoro-benzamide] | 0.832 | 1005
COc1cncc(C(=O)Nc2nc3c(OC)ccc(C4COCCO4)c3s2)c1 (single isomer, unassigned; (+)) [Example 53, (+)-N-(7-[1,4]Dioxan-2-yl-4-methoxy-benzothiazol-2-yl)-5-methoxy-nicotinamide] | 0.832 | 8832
COc1ccc(C2COCCO2)c2sc(NC(=O)c3ccnc(C4CCOCC4)c3)nc12 (racemic) [Example 6, (±)-N-(7-[1,4]Dioxan-2-yl-4-methoxy-benzothiazol-2-yl)-2-(tetrahydro-pyran-4-yl)-isonicotinamide] | 1.32 | 1582
COc1ccc(C2COCCO2)c2sc(NC(=O)c3ccc4c(c3)OCO4)nc12 (single isomer, unassigned; (+)) [Example 36, (+)-Benzo[1,3]dioxole-5-carboxylic acid (7-[1,4]dioxan-2-yl-4-methoxy-benzothiazol-2-yl)-amide] | 0.537 | 1411
COc1ccc(C(=O)Nc2nc3c(OC)ccc(C4COCCO4)c3s2)cc1 (single isomer, unassigned; (+)) [Example 33, (+)-N-(7-[1,4]Dioxan-2-yl-4-methoxy-benzothiazol-2-yl)-4-methoxy-benzamide] | 0.708 | 1238

Further lines, results first:

Ki [1] [nM] | Selectivity to hA1 [2] | Compound
0.851 | 2319 | COc1ccc(C2COCCO2)c2sc(NC(=O)c3ccnc(N4CC(O)C4)c3)nc12 (single isomer, unassigned; (+)) [Example 49, (+)-N-(7-[1,4]Dioxan-2-yl-4-methoxy-benzothiazol-2-yl)-2-(3-hydroxy-azetidin-1-yl)-isonicotinamide]
0.977 | 7378 | COc1ccc(C2COCCO2)c2sc(NC(=O)c3ccnc(N4CCC4)c3)nc12 (single isomer, unassigned; (+)) [Example 18, (+)-2-Azetidin-1-yl-N-(7-[1,4]dioxan-2-yl-4-methoxy-benzothiazol-2-yl)-isonicotinamide]
0.676 | 3874 | COc1ccc(C2COCCO2)c2sc(NC(=O)c3ccnc(N4CCOCC4)c3)nc12 (single isomer, unassigned; (+)) [Example 17, (+)-N-(7-[1,4]Dioxan-2-yl-4-methoxy-benzothiazol-2-yl)-2-morpholin-4-yl-isonicotinamide]
0.891 | 6138 | COc1ccc(C2COCCO2)c2sc(NC(=O)c3ccnc(N4CC(F)C4)c3)nc12 (single isomer, unassigned; (+)) [Example 30, (+)-N-(7-[1,4]Dioxan-2-yl-4-methoxy-benzothiazol-2-yl)-2-(3-fluoro-azetidin-1-yl)-isonicotinamide]
0.955 | 1758 | COc1ccc(C2COCCO2)c2sc(NC(=O)c3ccnc(C)c3)nc12 (single isomer, unassigned; (+)) [Example 15, (+)-N-(7-[1,4]Dioxan-2-yl-4-methoxy-benzothiazol-2-yl)-2-methyl-isonicotinamide]
1.07 | 2850 | COc1ccc(C2COCCO2)c2sc(NC(=O)c3ccnc(N4CCC(O)CC4)c3)nc12 (single isomer, unassigned; (+)) [Example 29, (+)-4-Hydroxy-3,4,5,6-tetrahydro-2H-[1,2′]bipyridinyl-4′-carboxylic acid (7-[1,4]dioxan-2-yl-4-methoxy-benzothiazol-2-yl)-amide]
1.23 | 2718 | CCOC1CN(c2cc(C(=O)Nc3nc4c(OC)ccc(C5COCCO5)c4s3)ccn2)C1 (single isomer, unassigned; (+)) [Example 31, (+)-N-(7-[1,4]Dioxan-2-yl-4-methoxy-benzothiazol-2-yl)-2-(3-ethoxy-azetidin-1-yl)-isonicotinamide]
0.724 | 10082 | COc1cccc(C(=O)Nc2nc3c(OC)ccc(C4COCCO4)c3s2)c1 (single isomer, unassigned; (+)) [Example 37, (+)-N-(7-[1,4]Dioxan-2-yl-4-methoxy-benzothiazol-2-yl)-3-methoxy-benzamide]
0.646 | 5404 | COc1ccc(C2COCCO2)c2sc(NC(=O)c3ccnc(N4CC(OC)C4)c3)nc12 (single isomer, unassigned; (+)) [Example 32, (+)-N-(7-[1,4]Dioxan-2-yl-4-methoxy-benzothiazol-2-yl)-2-(3-methoxy-azetidin-1-yl)-isonicotinamide]
1.2 | 1828 | COc1cc(C(=O)Nc2nc3c(OC)ccc(C4COCCO4)c3s2)ccn1 (single isomer, unassigned; (+)) [Example 14, (+)-N-(7-[1,4]Dioxan-2-yl-4-methoxy-benzothiazol-2-yl)-2-methoxy-isonicotinamide]
